# From ChEMBL document CHEMBL6071165, “Design, synthesis and biological evaluation of plant-derived miliusol derivatives achieve TNBC profound regression in vivo” (Eur J Med Chem, 2024)
# Calls of active or inactive are those of the source. The rule behind the calls is not given here.
# Key:
# [1] = system: MDA-MB-231; test: Antiproliferative activity against human MDA-MB-231 cells xenografted in female BALB/c mouse model assessed as fold change in cleavage of caspase-3 level at 20 mg/kg administered subcutaneously incubated for 24 hrs by Western blot analysis (reference value: 1.00%); type: functional; conditions: route sc
# [2] = system: BT-549; test: Induction of apoptosis in human BT-549 cells assessed as late apoptotic cells at 0.5 uM incubated for 24 hrs by Annexin V-PI staining based flow cytometric analysis (reference value: 2.95%); type: functional
# [3] = system: MDA-MB-231; test: Inhibition of glycolysis in human MDA-MB-231 cells assessed as decrease in GLUT4 protein level at 0.5 to 2 uM incubated for 24 hrs by Western blot analysis; type: functional, cell-based; conditions: dose 0.5-2 µM
# [4] = system: BT-549; test: Antiproliferative activity against human BT-549 cells xenografted in female BALB/c mouse model assessed as fold change in upregulation of BIP protein level at 20 mg/kg administered subcutaneously incubated for 24 hrs by Western blot analysis (reference value: 1.00%); type: functional; conditions: route sc
# [5] = system: BT-549; test: Induction of ER stress in human BT-549 cells assessed as upregulation of BIP protein level at 1 uM incubated for 24 hrs by DAPI staining based immunofluorescence analysis; type: functional, cell-based
# [6] = system: BT-549; test: Downregulation of c-Jun level in human BT-549 cells incubated for 24 hrs by Western blot analysis; type: functional, cell-based; conditions: dose 0.5-2 µM
# [7] = system: Mitochondrial membrane; test: Disruption of mitochondrial potential loss in human BT-549 cells assessed as increase in JC-1 monomers at 1 uM incubated for 24 hrs by JC-1 staining based flow cytometric analysis (Rvb =1.07%); type: cell membranes
# [8] = system: MDA-MB-231; test: Antiproliferative activity against human MDA-MB-231 cells xenografted in female BALB/c mouse model assessed as fold change in upregulation of BIP protein level at 5 mg/kg administered subcutaneously incubated for 24 hrs by Western blot analysis (reference value: 1.00%); type: functional; conditions: route sc
# [9] = Selectivity ratio of IC50 for antiproliferative activity against human MCF-10A cells assessed as inhibition of cell proliferation incubated for 48 hrs by MTT assay to IC50 for antiproliferative activity against human MDA-MB-231 cells assessed as inhibition of cell proliferation incubated for 48 hrs by MTT assay; type: cell-based; conditions: MCF-10A cells versus MDA-MB-231 cells, read-out: Ratio IC50
# [10] = system: MDA-MB-231; test: Induction of apoptosis in human MDA-MB-231 cells assessed as early apoptotic cells at 2 uM incubated for 24 hrs by Annexin V-PI staining based flow cytometric analysis (reference value: 0.42%); type: functional
# [11] = system: MDA-MB-231; test: Antiproliferative activity against human MDA-MB-231 cells xenografted in female BALB/c mouse model assessed as inhibition of Ki-67 expression at 5 to 20 mg/kg administered subcutaneously by immunohistochemical staining based microscopic analysis; type: functional, organism-based; conditions: dose 5-20 mg/kg, route sc
# [12] = Toxicity in female BALB/c mouse assessed as change in brain administered subcutaneously measured upto 16 days; type: tissue-based; conditions: in vivo, sc, 384 h, time < 16 day
# [13] = system: MDA-MB-231; test: Induction of apoptosis in human MDA-MB-231 cells assessed as upregulation of Bax expression at 0.5 to 2 uM incubated for 24 hrs by Western blot analysis; type: functional, cell-based; conditions: dose 0.5-2 µM
# [14] = system: BT-549; test: Inhibition of cell migration in human BT-549 cells assessed as reduction in wound healing ability at 0 to 2 uM incubated for 48 hrs by Wound healing assay; type: functional, cell-based; conditions: dose 0-2 µM
# [15] = system: BT-549; test: Antiproliferative activity against human BT-549 cells xenografted in female BALB/c mouse model assessed as fold change in upregulation of BIP protein level at 5 mg/kg administered subcutaneously incubated for 24 hrs by Western blot analysis (reference value: 1.00%); type: functional; conditions: route sc
# [16] = system: MDA-MB-231; test: Antitumor activity against human MDA-MB-231 cells xenografted in female BALB/c mouse model assessed as reduction in tumor volume administered subcutaneously and measured every day; type: functional, cell-based; conditions: dose 5-20 mg/kg, route sc
# [17] = system: BT-549; test: Antiproliferative activity against human BT-549 cells xenografted in female BALB/c mouse model assessed as fold change in downregulation of MMP-2 protein level at 10 mg/kg administered subcutaneously incubated for 24 hrs by Western blot analysis (reference value: 1.00%); type: functional; conditions: route sc
# [18] = system: MDA-MB-231; test: Antiproliferative activity against human MDA-MB-231 cells xenografted in female BALB/c mouse model assessed as fold change in upregulation of BAX protein level at 5 mg/kg administered subcutaneously incubated for 24 hrs by Western blot analysis (reference value: 1.00%); type: functional; conditions: route sc
# [19] = system: MDA-MB-231; test: Inhibition of cell migration in human MDA-MB-231 cells assessed as increase in E-cadherin level incubated for 24 hrs by Western blot analysis; type: functional, cell-based; conditions: dose 0.5-2 µM
# [20] = system: BT-549; test: Induction of apoptosis in human BT-549 cells assessed as upregulation of cleavage of caspase-3 expression at 0.5 to 2 uM incubated for 24 hrs by Western blot analysis; type: functional, cell-based; conditions: dose 0.5-2 µM
# [21] = system: MDA-MB-231; test: Inhibition of glycolysis in human MDA-MB-231 cells assessed as reduction in lactate production at 0.5 to 2 uM; type: functional, cell-based; conditions: dose 0.5-2 µM
# [22] = system: BT-549; test: Antiproliferative activity against human BT-549 cells xenografted in female BALB/c mouse model assessed as as fold change in cleavage of caspase-3 level at 10 mg/kg administered subcutaneously incubated for 24 hrs by Western blot analysis (reference value: 1.00%); type: functional; conditions: route sc
# [23] = system: MDA-MB-231; test: Antiproliferative activity against human MDA-MB-231 cells xenografted in female BALB/c mouse model assessed as fold change in inhibition of PKM2 expression at 20 mg/kg administered subcutaneously incubated for 24 hrs by Western blot analysis (reference value: 1.00%); type: functional; conditions: route sc
# [24] = system: MDA-MB-231; test: Antiproliferative activity against human MDA-MB-231 cells xenografted in female BALB/c mouse model assessed as fold change in cleavage of caspase-3 level at 10 mg/kg administered subcutaneously incubated for 24 hrs by Western blot analysis (reference value: 1.00%); type: functional; conditions: route sc
# [25] = Toxicity in female BALB/c mouse xenografted with human MDA-MB-231 cells assessed as effect on pathological changes in lung at 5 to 20 mg/kg, sc by H and E staining based analysis; type: organism-based; conditions: in vivo, dose 5-20 mg/kg
# [26] = system: BT-549; test: Induction of apoptosis in human BT-549 cells assessed as early apoptotic cells at 2 uM incubated for 24 hrs by Annexin V-PI staining based flow cytometric analysis (reference value: 0.78%); type: functional
# [27] = system: BT-549; test: Inhibition of glycolysis in human BT-549 cells assessed as reduction in glucose uptake at 0.5 to 2 uM incubated for 24 hrs followed by 2-NBDG staining based flow cytometric analysis; type: functional, cell-based; conditions: dose 0.5-2 µM
# [28] = system: MDA-MB-231; test: Induction of ER stress in human MDA-MB-231 cells assessed as upregulation of BIP protein level at 1 uM incubated for 24 hrs by DAPI staining based immunofluorescence analysis; type: functional, cell-based
# [29] = target: Eukaryotic translation initiation factor 3 subunit D (Homo sapiens) (UniProt O15371); test: Induction of thermal stabilization of EIF3D in human MDA-MB-231 cells at 1 uM by CETSA analysis; type: cell-based
# [30] = system: BT-549; test: Antiproliferative activity against human BT-549 cells xenografted in female BALB/c mouse model assessed as increase in E-cadherin level at 5 to 20 mg/kg administered subcutaneously by immunohistochemical staining based microscopic analysis; type: functional, organism-based; conditions: dose 5-20 mg/kg, route sc
# [31] = system: MDA-MB-231; test: Antiproliferative activity against human MDA-MB-231 cells xenografted in female BALB/c mouse model assessed as fold change in inhibition of PKM2 expression at 5 mg/kg administered subcutaneously incubated for 24 hrs by Western blot analysis (reference value: 1.00%); type: functional; conditions: route sc
# Eukaryotic translation initiation factor 3 subunit D (Homo sapiens), sequence (O15371 whole entry): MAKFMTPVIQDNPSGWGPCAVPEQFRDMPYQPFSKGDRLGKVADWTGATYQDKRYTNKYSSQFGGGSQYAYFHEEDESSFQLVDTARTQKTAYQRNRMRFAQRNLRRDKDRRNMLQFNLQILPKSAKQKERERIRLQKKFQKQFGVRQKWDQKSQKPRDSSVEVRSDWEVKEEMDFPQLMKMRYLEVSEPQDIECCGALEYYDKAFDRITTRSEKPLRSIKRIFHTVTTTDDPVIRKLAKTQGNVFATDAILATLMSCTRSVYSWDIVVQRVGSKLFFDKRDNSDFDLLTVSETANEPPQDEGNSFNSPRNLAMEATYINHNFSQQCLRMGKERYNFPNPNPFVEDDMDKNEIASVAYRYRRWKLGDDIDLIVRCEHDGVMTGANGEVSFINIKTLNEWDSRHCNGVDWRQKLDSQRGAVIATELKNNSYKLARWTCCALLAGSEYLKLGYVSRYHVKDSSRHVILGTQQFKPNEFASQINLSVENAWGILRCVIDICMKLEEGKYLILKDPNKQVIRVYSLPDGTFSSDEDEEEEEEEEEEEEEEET
structure (smiles),measurement,setting,value
CC(C)=CCC/C(C)=C/[C@H]1OC(=O)CC12C[C@H](OC(=O)Cc1ccc(NC(=O)/C=C/c3ccccc3)cc1)C=CC2=O (stereo partly specified),fold change (FC),[1],2.09
same,Activity,[2],3.62%
same,inhibition,[3],Active
same,fold change (FC),[4],2.37
same,Activity,[5],Active
same,Activity,[6],Dose-Dependent Effect
same,Activity,[7],56.3%
same,fold change (FC),[8],2.18
same,selectivity ratio at 48 h,[9],36.4
same,Activity,[10],2.23%
same,Activity,[11],Active
same,Activity,[12],Non-Toxic
same,Activity,[13],Active
same,inhibition,[14],Active
same,fold change (FC),[15],1.4
same,Activity,[16],Dose-Dependent Effect
same,fold change (FC),[17],0.75
same,fold change (FC),[18],1.05
same,inhibition,[19],Dose-Dependent Effect
same,Activity,[20],Active
same,inhibition,[21],Active
same,fold change (FC),[22],1.72
same,fold change (FC),[23],0.31
same,fold change (FC),[24],1.67
same,Activity,[25],Non-Toxic
same,Activity,[26],11.1%
same,inhibition,[27],Active
same,Activity,[28],Active
same,Activity,[29],Active
same,Activity,[30],Active
same,fold change (FC),[31],0.81
